The numbers were not newly measured in patent US11795119B2, “Stabilized DCD and/or alkyl thiophosphoric triamide solvent systems and use in agricultural applications” (RHODIA OPERATIONS, priority 2016, dated 2023), which cites them from elsewhere.

The conditions of series [1]: typically above 45° C.

With `CCCCNP(N)(N)=S` [NBPT, N-(n-butyl)-thiophosphoric triamide], in series [1], the “degradation at higher temperature” value is listed as “degrades rapidly”. Take `N#CNC(=N)N` [Dicyandiamide, 2-cyanoguanidine]: the solubility in water result is reported as “about 41 g/l”.
